Values quoted from earlier work, collected in paper PMC6738096 (British Journal of Cancer, 2019).

Key:
[1] = system: ALK-positive NSCLC; parameters: method as in not given; settings: ALK pre-treated setting, post crizotinib; ref not given; cited from earlier work
[2] = cited from earlier work

SMILES: COc1cc(N2CCC(N3CCN(C)CC3)CC2)ccc1Nc1ncc(Cl)c(Nc2ccccc2P(C)(C)=O)n1 [brigatinib]
- Objective response rate [1]: 45–54%
- QTc prolongation in clinical trials [2]: QTc was not prolonged to any clinically relevant extent

SMILES: Cc1cc(Nc2ncc(Cl)c(Nc3ccccc3S(=O)(=O)C(C)C)n2)c(OC(C)C)cc1C1CCNCC1 [ceritinib]
- Objective response rate [1]: 55%
- Patients with QTc > 500 ms ([2]; among 919 patients): 1.3%
- Patients with ΔQTc of > 60 ms ([2]; among 919 patients): 6%

SMILES: C[C@H]1Oc2cc(cnc2N)-c2c(nn(C)c2C#N)CN(C)C(=O)c2ccc(F)cc21 [lorlatinib]
- Objective response rate [1]: 48%
